What was measured:
[1] = tested on: patient-derived pancreatic xenograft models; assay: Orthotopic patient-derived pancreatic xenograft models, mono-therapy; format: in vivo, NOD/SCID mice
Description: 6 orthotopically implanted patient-derived pancreatic xenograft models with varying growth rates and levels of tumor hypoxia were used in order to investigate the efficiency of the Compound II as a mono-therapy or in combination with Gemcitabine.
The patient-derived pancreatic xenograft models were established by attaching a piece of the patient tumor on the pancreas of 4-5 week old Non-obese diabetic (NOD)/Severe combined immunodeficiency (SCID) mice. The xenograft models closely resemble the morphology of the patient specimen and represent the range of tumor morphologies described in pancreatic cancer patients.
Tumor volume was evaluated by palpation and animals were randomized into treatment groups. Animals were treated with Compound II using a daily dose of 7.5 mg/kg by oral gavage for 21 days for experiments evaluating activity as a mono-therapy, or with 13.5 mg/kg according to a 2-day-on-5-days-off schedule in combination bi-weekly 100 mg/kg Gemcitabine for 21 days.
Tumor weight after completion of the treatment and overall survival were evaluated. Immunofluorescence (IF) staining of xenograft sections was used to evaluate tumor hypoxia and proliferation. The impact of Compound II treatment on survival was examined in 6 animals per group. Mice were followed until the animals either died or had to be euthanized due to oversized tumors.

OCIP110 tumors = assay: OCIP110 orthotopic xenograft, Compound II alone or with Cisplatin; format: in vivo, SCID mice; conditions: Compound II 10 mg/kg 2-on/5-off schedule, 21 days
Protocol: OCIP110 tumors were implanted orthotopically onto the pancreas of 4-5 week old SCID mice. Tumor volume was evaluated by palpation and animals were randomized into treatment groups. Animals were treated with either Compound II on a 2-on/5-off schedule with 10 mg/kg, a weekly dose of 4 mg/kg Cisplatin or the combination treatment for 21 days. Tumor weight was evaluated when tumors were excised at the end of the treatment.

PANC-1 cell line = assay: Growth inhibition (GI50) assay, SRB, PANC-1; format: cell-based; conditions: Homo sapiens, 120 h, PANC-1 (KRas mutant, TP53 mutant, CDKN2A homozygous deletion, SMAD4 wild-type), 5 days
Description: (§1) BxPC-3 and PANC-1 cell lines were obtained from American Type Culture Collection (ATCC, Manassas, Va.) and maintained according to the supplier's instructions. Short tandem repeat (STR) profiling was used to verify authenticity of the cell lines. Sixteen STR loci were simultaneously amplified in a multiplex PCR reaction (The Hospital for Sick Children, Toronto, Canada), and the ATCC database was used for comparison, where possible. Cell lines were routinely tested for mycoplasma and used at low passage numbers (<15).
(§2) Cells were seeded at 3000 per 80 μL, into 96-well plates according to cell growth rate 24 hours before compound overlay and cultured at 37° C. and 5% CO2. Compounds were prepared as 10 mM stocks in 100% DMSO. […] After 5 days, cell growth in each well was assessed by the sulforhodamine B (SRB) assay measuring total protein content. […] The SRB was solubilized with 100 μL of 10 mM Tris pH 10.5 per well, and absorbance was read at 570 nm using a SpectraPlus microplate reader (Molecular Devices Corporation). SRB absorbance values were adjusted by subtracting the average of the baseline readings from untreated cells assessed one day after cell seeding. The percentage (%) of relative inhibition of cell growth was calculated by comparing to DMSO-treated cells. GI50s were calculated using GraphPad PRISM software (GraphPad Software Inc., San Diego, Calif.).

[2] = tested on: OCIP51 xenograft tumor initiating cells; assay: Limiting dilution assay for tumor initiating cells (TIC); format: in vivo, NOD/SCID mice; conditions: 52 mg/kg, tumors harvested 12 h after treatment, preliminary results
Protocol: FIG. 2(C) is a schematic overview of the limiting dilution assay. Briefly, xenograft tumors were grown to a diameter of approximately 1 cm and treated with 52 mg/kg Compound II and tumors harvested 12 h after treatment. Excised tumors were mechanically minced and a single cell suspension prepared using a DNAse, Collagenase and Protease cocktail. A sample of the single cell suspension was stained for mouse CD31-FITC and H2K-FITC to establish the mouse cell content. Cells were counted using a haemocytometer and the human content was calculated. 3-6 dilutions of human cells per sample were injected into the flank of NOD/SCID mice. 3 mice were injected into both flanks per dilution. Tumor take rate was observed over the course of 6 month. Tumor initiating frequency was calculated from using the L-Calc software. […] The remaining 3 xenograft models have been injected for the dilutions.

BxPC-3 cell line = assay: Growth inhibition (GI50) assay, SRB, BxPC-3; format: cell-based; conditions: Homo sapiens, 120 h, BxPC-3 (KRas wild-type, TP53 mutant, SMAD4 homozygous deletion), 5 days
Description: as §1, §2

COc1ccc2c(c1)[C@]1(C[C@H]1c1ccc3c(/C=C/c4ccc(CN5CCOCC5)cc4)n[nH]c3c1)C(=O)N2C [Compound II]
Tumor weight after completion of the treatment ([1]; 7.5 mg/kg daily by oral gavage for 21 days, mono-therapy, 6 xenograft models): significantly reduced tumor weight in 4 of the 6 tested patient-derived pancreatic xenograft models | medium survival ([1]; OCIP51 (highly hypoxic, fast growing) model, 7.5 mg/kg daily oral, 21 days, vehicle 54 days): 103 days | overall survival ([1]; mono-therapy for 21 days, responsive models): increase in overall survival in a number of responsive models | response to treatment versus tumor hypoxia ([1]; mono-therapy, highly hypoxic versus medium or low hypoxic models, preliminary results): strongest response to Compound II as a mono-therapy was observed in highly hypoxic models | Tumor weight at the end of the treatment (OCIP110 tumors): reduced tumor weight | GI50 (PANC-1 cell line): 25 nM | Number of tumor initiating cells (TICs) [2]: reduced the number of TICs in OCIP51 | GI50 (BxPC-3 cell line): 15 nM

From patent US9642856B2, “Treatment for pancreatic cancer” (University Health Network, priority 2013, dated 2017)
